Results as given in patent publication US12172966B1, “2-(1H-imidazole-1-carbonyl)benzoic acid as an anticancer compound” (KING FAISAL UNIVERSITY, priority 2023, dated 2024).

Legend:
[1] = test system: human prostate cancer cells (PC3); experiment: Assessment of cytotoxicity by SRB assay, prostate cancer cells; assay type: cell-based; conditions: for IC50: mean±SD
Description: (§1) The anticancer activity of the described synthesized compounds against highly aggressive androgen-independent metastatic human prostate cancer cells (PC3) and osteosarcoma (MG-63) cells. The human prostate cancer cells (PC3) and human osteosarcoma cells (MG-63) were obtained from Nawah Scientific Inc. (Mokatam, Cairo, Egypt) and cultured in DMEM (Dulbecco's modified eagle's medium), Gibco, USA, supplemented with fetal bovine serum (FBS) at a concentration of 10% and 100 U/mL of penicillin and streptomycin (PS). The Cells were incubated at 37° C. in a humidified environment that contained 5% CO2.
(§2) Cells were seeded in 96-well plates as aliquots of 100 μL cell suspension and incubated in a complete media for 24 h. afterward, cells were treated with 2-(1H-imidazole-1-carbonyl)benzoic acid at diverse concentrations ranging from 0.01 μM to 100 μM for 72 h. Then, cells were fixed at 4° C. for one hour with 150 μL of 10% trichloroacetic acid (TCA). After washing the cells five times with distilled water, […] of sulforhodamine (SRB) solution (0.4% w/v) was added and incubated for 10 min at room temperature in a dark place. Cells were washed with 1% acetic acid three times and allowed to air-dry. Then, 150 μL of Tris pH 10.5 (10 mM) was added, and the absorbance was measured at 540 nm using a BMG LABTECH®—FLUOstar Omega microplate reader (Ortenberg, Germany). Half maximal inhibitory concentrations (IC50) values were calculated for each experiment using GraphPad Prism 6 software. IC50 values were reported as mean±SD.
(§3) The inhibition was calculated using the following equation: Inhibition %=100−Average Viability

[2] = test system: human osteosarcoma cells (MG-63); experiment: Assessment of cytotoxicity by SRB assay, osteosarcoma cells; assay type: cell-based; conditions: for IC50: mean±SD
Description: as §1, §2, §3

[3] = Homo sapiens, MG-63 cells, 72 h

Question: How did the inhibition at 10 µg/mL ([1]; Homo sapiens, PC-3, 72 h, PC-3 cells, 10 μg/ml, 72 h) turn out when `O=C(O)c1ccccc1C(=O)n1ccnc1` [2-(1H-imidazole-1-carbonyl)benzoic acid] was run?
Answer: 93%

Question: What about the IC50 ([1]; Homo sapiens, PC-3 cells, 72 h) of the same compound?
Answer: 2.67 ± 0.03 µM

Question: What about the “Prostate cancer (PC-3) Inhibition %” value ([1]; PC-3 cells, 10 μg/ml, 72 h) of the same compound?
Answer: 93.44%

Question: What about the IC50 values, prostate cancer cell line ([1]; PC-3 cells, bound stated in text for both cell lines) of the same compound?
Answer: < 4 µM

Question: What about the “antiproliferative activities against cancer cells (PC3)” value ([1]; result in words) of the same compound?
Answer: excellent antiproliferative activities

Question: And the inhibition at 10 µg/mL ([2]; Homo sapiens, MG-63 cells, 10 μg/ml, 72 h)?
Answer: 88.9%

Question: What about the inhibition at 100 µg/mL ([2]; Homo sapiens, MG-63 cells, 100 μg/ml, 72 h) of the same compound?
Answer: 90.9%

Question: What about the IC50 [2, 3] of the same compound?
Answer: 3.55 ± 0.2 µM

Question: What about the IC50 values, osteosarcoma cell line ([2]; MG-63 cells, bound stated in text for both cell lines) of the same compound?
Answer: < 4 µM

Question: What about the “antiproliferative activities against osteosarcoma (MG-63) cells” value ([2]; result in words) of the same compound?
Answer: excellent antiproliferative activities

Question: Which results are given for `COc1cccc2c1C(=O)c1c(O)c3c(c(O)c1C2=O)C[C@@](O)(C(=O)CO)C[C@@H]3O[C@H]1C[C@H](N)[C@H](O)[C@H](C)O1` [DOX, Doxorubicin, reference compound]?
Answer: IC50 ([1]; Homo sapiens, PC-3 cells, 72 h): 7.5 ± 0.45 µM; IC50 [2, 3]: 9.3 ± 1.1 µM
